Measurements: patent US7335665B2, “Spirocyclic piperidines as MCH1 antagonists and uses thereof” (H - Lundbeck A/S, priority 2003, dated 2008)

Target: T1, rat MCH1 receptor (Rattus norvegicus, UniProt P97639)
T1 construct: expressed in transfected cells; host or cells: Human embryonic kidney Peak rapid 293 cells (Peakr293), transient, calcium phosphate; membranes
Assay: Radioligand binding assay at cloned rat MCH1 receptor ([3H]Compound A displacement)
Details: KI, cloned rat MCH1, membranes of transfected Peakr293 cells, 0.08 nM [3H]Compound A, 25° C., 90 minutes
Method: For binding assays, pellets of transfected cells are suspended in ice-cold buffer (20 mM Tris.HCl, 5 mM EDTA, pH 7.4) and homogenized by sonication for 7 sec. The cell lysates are centrifuged at 200×g for 5 min at 4° C. The supernatants are then centrifuged at 40,000×g for 20 min at 4° C. The resulting pellets are washed once in the homogenization buffer and suspended in binding buffer (see methods for radioligand binding). Protein concentrations are determined by the method of Bradford (1976) using bovine serum albumin as the standard. Binding assays are usually performed immediately, however it is possible to prepare membranes in batch and store frozen in liquid nitrogen for future use.
Radioligand binding assays for the rat MCH1 receptor were carried out using plasmid pcDNA3.1-rMCH1-f (ATCC Patent Deposit Designation No. PTA-3505). Plasmid pcDNA3.1-rMCH1-f comprises the regulatory elements necessary for expression of DNA in a mammalian cell operatively linked to DNA encoding the rat MCH1 receptor so as to permit expression thereof. Plasmid pcDNA3.1-rMCH1-f was deposited on Jul. 5, 2001, with the American Type Culture Collection (ATCC), 12301 Parklawn Drive, Rockville, Md. 20852, U.S.A. under the provisions of the Budapest Treaty for the International Recognition of the Deposit of Microorganisms for the Purposes of Patent Procedure and was accorded ATCC Patent Deposit Designation No. PTA-3505.
Human embryonic kidney Peak rapid 293 cells (Peakr293 cells) were transiently transfected with DNA encoding the MCH1 receptor utilizing the calcium phosphate method and cell membranes were prepared as described above. Binding experiments with membranes from Peakr293 cells transfected with the rat MCH1 receptor were performed with 0.08 nM [^3H]Compound A (custom labeled by Amersham) (the synthesis of Compound A is described in detail below) using an incubation buffer consisting of 50 mM Tris pH 7.4, 10 mM MgCl2, 0.16 mM PMSF, 1 mM 1,10 phenantroline and 0.2% BSA. Binding was performed at 25° C. for 90 minutes. Incubations were terminated by rapid vacuum filtration over GF/C glass fiber filters, presoaked in 5% PEI using […] Tris pH 7.4 as wash buffer. In all experiments, nonspecific binding is defined using […] Compound A.
The compounds described above were assayed using cloned rat MCH1.

T1 sequence (P97639 whole entry): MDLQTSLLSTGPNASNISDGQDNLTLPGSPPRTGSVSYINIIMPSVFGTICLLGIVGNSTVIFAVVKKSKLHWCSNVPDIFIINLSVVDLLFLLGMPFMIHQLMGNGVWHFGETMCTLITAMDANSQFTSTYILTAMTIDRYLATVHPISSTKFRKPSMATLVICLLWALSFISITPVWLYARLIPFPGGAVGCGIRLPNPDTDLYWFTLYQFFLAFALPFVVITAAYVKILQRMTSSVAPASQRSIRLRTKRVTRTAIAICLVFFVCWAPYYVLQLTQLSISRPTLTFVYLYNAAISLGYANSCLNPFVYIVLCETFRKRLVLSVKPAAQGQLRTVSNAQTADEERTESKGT

SMILES	Ki [nM]
O=C(NCCCCN1CCC2(CCc3ccccc32)CC1)c1ccc(Oc2cc(Cl)cc(Cl)c2)o1 [Example 15, [5-(3,5-dichlorophenoxy)(2-furyl)]-N-(4-(SPIRO[indane-1,4′-piperidine]-10-YL)BUTYL)carboxamide]	434
O=C(NCCCCCCN1CCC2(CCc3ccccc32)CC1)c1ccc(F)c(F)c1 [Example 19, (3,4-DIFLUOROPHENYL)-N-(6-(SPIRO[INDANE-1,4′-PIPERIDINE]-10-YL)HEXYL)CARBOXAMIDE]	412
O=C(NCCCCN1CCC2(CCc3ccccc32)CC1)Nc1cc(Cl)cc(Cl)c1 [Example 26, N-(3,5-DICHLOROPHENYL)[(4-SPIRO[INDANE-1,4′-PIPERIDINE]-10-YLBUTYL)AMINO]CARBOXAMIDE]	512
O=C1c2ccccc2C(=O)N1CCCCN1CCC2(C=Cc3ccccc32)CC1 [Example 1, 2-(4-(-(SPIRO[INDENE-1,4′-PIPERIDINE]-10-YL)BUTYL)BENZO[C]AZOLINE-1,3-DIONE]	807
CC(C)(C(=O)NCCCN1CCC2(CCc3ccccc32)CC1)c1ccc(Cl)cc1 [Example 46]	84.1
O=C(NCCCN1CCC2(CC1)OCc1ccccc12)C1(c2ccc(Cl)cc2)CCC1 [Example 87, [(4-CHLOROPHENYL)CYCLOBUTYL]-N-(3-(SPIRO[1,3-DIHYDROISOBENZOFURAN-1,4′-PIPERIDINE]-10-YL)PROPYL)CARBOXAMIDE]	417
O=C(NCCCN1CCC2(CC1)OCc1cc(F)c(F)c(F)c12)C(c1ccccc1)c1ccccc1 [Example 99, 2,2-DIPHENYL-N-[3-(4,5,6-TRIFLUOROSPIRO[1,3-DIHYDROISOBENZOFURAN-3,4′-PIPERIDINE]-10-YL)PROPYL]ACETAMIDE]	11.6
O=C1OC2(CCN(CCCNC(=O)C(c3ccc(Cl)cc3)c3ccc(Cl)cc3)CC2)c2ccccc21 [Example 94, 2,2-BIS(4-CHLOROPHENYL)-N-[3-(1-OXOSPIRO[3-HYDROISOBENZOFURAN-3,4′-PIPERIDINE]-10-YL)PROPYL]ACETAMIDE]	600
O=C(NCCCCCCN1CCC2(CCc3ccccc32)CC1)C(c1ccccc1)c1ccccc1 [Example 5, 2,2-DIPHENYL-N-(6-(SPIRO[INDANE-1,4′-PIPERIDINE]-10-Y)LHEXYL)ACETAMIDE]	732
O=C(NCCCN1CCC2(CCc3ccccc32)CC1)C1(c2ccc(Cl)cc2)CCC1 [Example 59, [1-(4-CHLOROPHENYL)CYCLOBUTYL]-N-(3-(SPIRO[INDANE-1,4′-PIPERIDINE]-10-YL)PROPYL)CARBOXAMIDE]	175
CC(C)(C)c1cc(C(=O)NCCCCCCN2CCC3(CCc4ccccc43)CC2)n(Cc2ccccc2)n1 [Example 20, [3-(TERT-BUTYL)-1-BENZYL)PYRAZOL-5-YL]-N-(6-(SPIRO[INDANE-1,4′-PIPERIDINE]-10-YL)HEXYL)CARBOXAMIDE]	510
CC(C)(C(=O)NCCCN1CCC2(C=Cc3ccccc32)CC1)c1ccc(Cl)cc1 [Example 65, 2-(4-CHLOROPHENYL)-2-METHYL-N-(3-(SPIRO[INDENE-1,4′-PIPERIDINE]-10-YL)PROPYL)PROPANAMIDE]	78
O=C(NCCN1CCC2(CCc3ccccc32)CC1)c1cccc2ccccc12 [Example 42, NAPHTHYL-N-(2-(SPIRO[INDANE-1,4′-PIPERIDINE]-10-YLETHYL)CARBOXAMIDE]	545
CC(C(=O)NCCCN1CCC2(C=Cc3ccccc32)CC1)(c1ccccc1)c1ccccc1 [Example 63, 2,2-DIPHENYL-N-(3-(SPIRO[INDENE-1,4′-PIPERIDINE]-10-YL)PROPYL)PROPANAMIDE]	46
O=C(NCCCN1CCC2(CC1)OCc1ccccc12)C1(c2ccc(F)cc2)CCCCC1 [Example 80, [(4-FLUOROPHENYL)CYCLOHEXYL]-N-(3-(SPIRO[1,3-DIHYDROISOBENZOFURAN-1,4′-PIPERIDINE]-10-YL)PROPYL)CARBOXAMIDE]	174

Same assay, conditions: cloned rat MCH1, membranes of transfected Peakr293 cells, 0.08 nM [3H]Compound A, 25° C., 90 minutes; read-out: KI

SMILES	Ki [nM]
O=C(NCCCN1CCC2(C=Cc3ccccc32)CC1)C1(c2ccc(F)cc2)CCCCC1 [Example 72, [(4-FLUOROPHENYL)CYCLOHEXYL]-N-(3-(SPIRO[INDENE-1,4′-PIPERIDINE]-10-YL)PROPYL)CARBOXAMIDE]	131
O=C(NCCCN1CCC2(CC1)OCc1ccccc12)C1(c2ccc(Cl)cc2)CCCC1 [Example 85, [(4-CHLOROPHENYL)CYCLOPENTYL]-N-(3-(SPIRO[1,3-DIHYDROISOBENZOFURAN-1,4′-PIPERIDINE]-10-YL)PROPYL)CARBOXAMIDE]	183
O=C(NCCCN1CCC2(CCc3ccccc32)CC1)C(c1ccc(Cl)cc1)c1ccc(Cl)cc1 [Example 55, 2,2-BIS(4-CHLOROPHENYL)-N-(3-(SPIRO[INDANE-1,4′-PIPERIDINE]-10-YL)PROPYL)ACETAMIDE]	8.6
O=C(NCCCN1CCC2(CCc3ccccc32)CC1)C1(c2ccc(Cl)cc2)CCCC1 [Example 52, [1-(4-CHLOROPHENYL)CYCLOPENTYL]-N-(3-(SPIRO[INDANE-1,4′-PIPERIDINE]-10-YL)PROPYL)CARBOXAMIDE]	112
O=C(NCCN1CCC2(CCc3ccccc32)CC1)c1ccc(F)c(F)c1 [Example 45, (3,4-DIFLUOROPHENYL)-N-(2-(SPIRO[INDANE-1,4′-PIPERIDINE]-10-YLETHYL)CARBOXAMIDE]	802
O=C(NCCCN1CCC2(C=Cc3ccccc32)CC1)C(c1ccc(Cl)cc1)c1ccc(Cl)cc1 [Example 68, 2,2-BIS(4-CHLOROPHENYL)-N-(3-(SPIRO[INDENE-1,4′-PIPERIDINE]-10-YL)PROPYL)ACETAMIDE]	5.8
O=C(NCCCN1CCC2(CCc3ccccc32)CC1)c1cc(Cl)cc(Cl)c1 [Example 8, (3,5-DICHLOROPHENYL)-N-(3-(SPIRO[INDANE-1,4′-PIPERIDINE]-10-YL)PROPYL)CARBOXAMIDE]	914
O=C(NCCCCN1CCC2(CCc3ccccc32)CC1)c1cc(F)cc(F)c1 [Example 13, (3,5-DIFLUOROPHENYL)-N-(4-(SPIRO[INDANE-1,4′-PIPERIDINE]-10-YL)BUTYL)CARBOXAMIDE]	270
O=C(NCCCCCN1CCC2(CCc3ccccc32)CC1)Nc1ccc(-c2ccccc2)cc1 [Example 27, N-(4-PHENYL)PHENYL)[(5-(SPIRO[INDANE-1,4′-PIPERIDINE]-10-YL)PENTYL)AMINO]CARBOXAMIDE]	662
Cc1ccc(C(C(=O)NCCCN2CCC3(C=Cc4ccccc43)CC2)c2ccc(C)cc2)cc1 [Example 62, 2,2-BIS(4-METHYL)PHENYL)-N-(3-(SPIRO[INDENE-1,4′-PIPERIDINE]-10-YL)PROPYL)ACETAMIDE]	26
CC(C(=O)NCCCN1CCC2(CC1)OCc1ccccc12)c1ccc(Cl)cc1 (stereo not drawn) [Example 83, 2-(4-CHLOROPHENYL)-N-(3-(SPIRO[1,3-DIHYDROISOBENZOFURAN-1,4′-PIPERIDINE]-10-YL)PROPYL)PROPANAMIDE]	557
O=C1OC2(CCN(CCCNC(=O)C(c3ccc(F)cc3)c3ccc(F)cc3)CC2)c2ccccc21 [Example 95, 2,2-BIS(4-FLUOROPHENYL)-N-[3-(1-OXOSPIRO[3-HYDROISOBENZOFURAN-3,4′-PIPERIDINE]-10-YL)PROPYL]ACETAMIDE]	84.6
Cc1ccc2c(c1)COC21CCN(CCCNC(=O)C(c2ccccc2)c2ccccc2)CC1 [Example 103, N-[3-(5-METHYLSPIRO[1,3-DIHYDROISOBENZOFURAN-1,4′-PIPERIDINE]-10-YL)PROPYL]-2,2-DIPHENYLACETAMIDE]	14.7
O=C(NCCCN1CCC2(CCc3ccccc32)CC1)C(c1ccc(F)cc1)c1ccc(F)cc1 [Example 57, 2,2-BIS(4-FLUOROPHENYL)-N-(3-(SPIRO[INDANE-1,4′-PIPERIDINE]-10-YL)PROPYL)ACETAMIDE]	4.2
O=C(NCCCCN1CCC2(CCc3ccccc32)CC1)c1cc(Cl)cc(Cl)c1 [Example 7, (3,5-DICHLOROPHENYL)-N-[(4-(SPIRO[INDANE-1,4′-PIPERIDINE]-10-YL)BUTYL)AMINO]CARBOXAMIDE]	271
O=C(NCCN1CCC2(CCc3ccccc32)CC1)c1cc(Cl)cc(Cl)c1 [Example 44, (3,5-DICHLOROPHENYL)-N-(2-(SPIRO[INDANE-1,4′-PIPERIDINE]-10-YLETHYL)CARBOXAMIDE]	182
O=C(NCCCN1CCC2(CCc3ccccc32)CC1)C1(c2ccc(F)cc2)CCCCC1 [Example 56, [1-(4-FLUOROPHENYL)CYCLOHEXYL]-N-(3-(SPIRO[INDANE-1,4′-PIPERIDINE]-10-YL)PROPYL)CARBOXAMIDE]	108
O=C(NCCCN1CCC2(C=Cc3ccccc32)CC1)C(c1ccccc1)c1ccccc1 [Example 38, 2,2-DIPHENYL-N-(3-SPIRO[INDENE-1,4′-PIPERIDINE]-10-YLPROPYL)ACETAMIDE]	6.5
